The source of these data is patent US20250129102A1, “CRYSTAL FORM OF PYRIMIDINE HETEROCYCLIC COMPOUND AND PREPARATION METHOD THEREFOR” (D3 Bio (Wuxi) Co., Ltd., priority 2021, published 2025).

Each structure is given as a SMILES string.

Series [1] can be described thus: Pharmacokinetics of crystal form A by oral administration in SD rats. Type of series: in vivo. The following applies: male, rat, plasma, 92.3 mg/kg, suspension in 0.5% methylcellulose. As for the experimental part:
Male SD rats aged 7 to 10 weeks were selected, and administered candidate compound solution orally. Whole blood was collected for a certain period of time, and prepared to obtain plasma. Drug concentration was analyzed by LC-MS/MS method, and pharmacokinetic parameters were calculated by Phoenix WinNonlin software (Pharsight, USA).

Series [2] is described as follows: Pharmacokinetics by oral administration in beagle dogs. Type of series: in vivo. Conditions: male, dog, plasma, 24.5 mg/kg, 0.5% methylcellulose. As for the experimental part:
680.397 mg of assay compound powder was accurately weighed, and 50 mL of 0.500 methylcellulose (400 viscosity) aqueous solution was added. The mixture was stirred for 10 minutes, and sonicated for 10 minutes. 50 mL of 0.5% o methylcellulose (400 viscosity) aqueous solution was added, and homogenized for 10 minutes using a homogenizer. 11 mL of 0.5% o methylcellulose (400 viscosity) aqueous solution was added. The mixture was sonicated for 5 minutes and stirred for 10 minutes. 358 μL of 0.5% o methylcellulose (400 viscosity) aqueous solution was added and stirred for 2 minutes. Male beagle dogs aged over six months were selected, and administered candidate compound solution orally. Whole blood was collected for a certain period of time, and prepared to obtain plasma. Drug concentration was analyzed by LC-MS/MS method, and pharmacokinetic parameters were calculated by Phoenix WinNonlin software (Pharsight, USA). The results of the assay are shown in Table 14: […]

Series [3] is described as follows: Solid stability assay of crystal form A (XRPD). Type of series: physicochemical. From the text:
The sample was spread into a thin layer. For the samples placed under conditions of high temperature and high humidity, the vial mouth was sealed with aluminum foil, and some small holes were punched in the aluminum foil to ensure that the samples were fully in contact with the ambient air. For the samples placed under condition of strong light, the vial mouth was sealed with aluminum foil, and some small holes were punched in the aluminum foil. Samples placed under different conditions were sampled and tested (XRPD) on day 5 and day 10, respectively. The assay results were compared with the initial assay results on day 0.
Each medicinal low-density polyethylene bag was tied tightly with a tie, and then was placed into a single-layer aluminum foil bag. The single-layer aluminum foil bag was then heat-sealed. Finally, the samples were stored in plastic buckets and stored in a chamber with constant temperature and humidity. The packaging used in the stability assay simulated the material storage packaging. The material was divided into 1.5 g/package as stability samples under red light. Each sample was packaged in the same way and labeled with a stability sample label. The samples placed under different conditions were sampled and tested (XRPD) in the 3rd and 6th months. The assay results were compared with the initial assay results on day 0.

Setting [4] is: read-out: Area under the plasma concentration-time curve, AUC0-last.
The mark [5] stands for this setting: read-out: Peak concentration, Cmax.

As a reminder, the Tmax is the time from dosing to the highest level. `C=C(F)C(=O)N1CCN(c2nc(OC[C@@]34CCCN3C[C@H](F)C4)nc3c2CO[C@H](c2c(F)c(N)cc(C)c2C(F)(F)F)C3)C[C@@H]1CC#N`: the AUC(0-t) in series [1] (setting [4]) amounted to 11.5 µM·h; in series [2] (setting [4]), 16.7 µM·h. In addition, the Cmax in series [1] (setting [5]) is 1400 nM; in series [2] (setting [5]) it was 2440 nM. Besides, the Tmax came out at 5.33 h in series [1] (read-out: Time-to-peak, Tmax) and 2.5 h in series [2] (read-out: Time-to-peak, Tmax). Further, the Crystal form result in series [3] (25 ± 2° C./60 ± 5% relative humidity, 3 months) is given as “Crystal form A”; in series [3] (25 ± 2° C./60 ± 5% relative humidity, 6 months), “Crystal form A”; in series [3] (40 ± 2° C./75 ± 5% relative humidity, 3 months) it was “Crystal form A”; in series [3] (40 ± 2° C./75 ± 5% relative humidity, 6 months) it was “Crystal form A”; in series [3] (High humidity (25° C./relative humidity 92.5%, unsealed), 5 days), “Crystal form A”; in series [3] (High humidity (25° C./relative humidity 92.5%, unsealed), 10 days), “Crystal form A”. Further, the Crystal form entry in series [3] (High temperature (60° C., unsealed), 5 days) is “Crystal form A”; in series [3] (High temperature (60° C., unsealed), 10 days), “Crystal form A”; in series [3] (Light control, 5 days) it was “Crystal form A”; in series [3] (Light control, 10 days) it was “Crystal form A”; in series [3] (initial, 0 day (XRPD)), “Crystal form A”. Also, in series [3] (high temperature, high humidity, strong light, long-term and accelerated experiments), the solid stability result is recorded as “good stability”.
